Measured values from PubChem BioAssay (NCI).
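GI50 is the concentration that inhibits growth by half. The concentration for full growth arrest is given as TGI.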

Tests used:
Assay in all cases: NCI anticancer screen, dose series, 384-well format
786-0 renal = system: 786-0 renal
A498 renal = system: A498 renal
A549 NSCLC = system: A549 NSCLC
ACHN renal = system: ACHN renal
CAKI-1 renal = system: CAKI-1 renal
EKVX NSCLC = system: EKVX NSCLC
HCT-116 colon = system: HCT-116 colon
HCT-15 colon = system: HCT-15 colon
HOP-62 NSCLC = system: HOP-62 NSCLC
HOP-92 NSCLC = system: HOP-92 NSCLC
IGROV1 ovarian = system: IGROV1 ovarian
K-562 leukemia = system: K-562 leukemia
KM12 colon = system: KM12 colon
LOX IMVI melanoma = system: LOX IMVI melanoma
MCF7 breast = system: MCF7 breast
MDA-MB-231 breast = system: MDA-MB-231 breast
NCI-H226 lung = system: NCI-H226 lung
NCI-H322M lung = system: NCI-H322M lung
NCI-H460 NSCLC = system: NCI-H460 NSCLC
NCI/ADR-RES ovarian = system: NCI/ADR-RES ovarian
OVCAR-3 ovarian = system: OVCAR-3 ovarian
OVCAR-4 ovarian = system: OVCAR-4 ovarian
OVCAR-5 ovarian = system: OVCAR-5 ovarian
OVCAR-8 ovarian = system: OVCAR-8 ovarian
PC-3 prostate = system: PC-3 prostate
RXF 393 renal = system: RXF 393 renal
SF-268 CNS = system: SF-268 CNS
SF-295 CNS = system: SF-295 CNS
SF-539 CNS = system: SF-539 CNS
SK-OV-3 ovarian = system: SK-OV-3 ovarian
SN12C renal = system: SN12C renal
SNB-19 CNS = system: SNB-19 CNS
TK-10 renal = system: TK-10 renal
U251 glioblastoma = system: U251 glioblastoma
UACC-62 melanoma = system: UACC-62 melanoma
UO-31 renal = system: UO-31 renal
BT-549 breast = system: BT-549 breast
COLO 205 colon = system: COLO 205 colon
DU-145 prostate = system: DU-145 prostate
HCC-2998 colon = system: HCC-2998 colon
HL-60(TB) leukemia = system: HL-60(TB) leukemia
HS 578T breast = system: HS 578T breast
HT29 colon = system: HT29 colon
M14 melanoma = system: M14 melanoma
MALME-3M melanoma = system: MALME-3M melanoma
MDA-MB-435 melanoma = system: MDA-MB-435 melanoma
MDA-MB-468 breast = system: MDA-MB-468 breast
MOLT-4 leukemia = system: MOLT-4 leukemia
NCI-H23 lung = system: NCI-H23 lung
NCI-H522 lung = system: NCI-H522 lung
RPMI-8226 leukemia = system: RPMI-8226 leukemia
SK-MEL-28 melanoma = system: SK-MEL-28 melanoma
SK-MEL-5 melanoma = system: SK-MEL-5 melanoma
SNB-75 CNS = system: SNB-75 CNS
SR leukemia = system: SR leukemia
SW-620 colon = system: SW-620 colon
T-47D breast = system: T-47D breast
UACC-257 melanoma = system: UACC-257 melanoma

Which results are given for CC(=O)O[C@H]1C(=O)[C@@]2(C)[C@H]([C@H](OC(=O)c3ccccc3)[C@]3(O)C[C@H](OC(=O)[C@H](O)[C@@H](NC(=O)c4ccccc4)c4ccccc4)C(C)=C1C3(C)C)[C@]1(OC(C)=O)CO[C@@H]1C[C@@H]2O?
GI50 ([…]-0 renal): 0.0191 µM; TGI (786-0 renal): > 54.4 µM; GI50 (A498 renal): 0.0265 µM; TGI (A498 renal): 36.3 µM; TGI (A549 NSCLC): > 46.4 µM; GI50 (ACHN renal): 0.0611 µM; TGI (ACHN renal): 45.8 µM; GI50 (CAKI-1 renal): 0.0507 µM; TGI (CAKI-1 renal): > 100 µM; GI50 (EKVX NSCLC): 0.039 µM; TGI (EKVX NSCLC): > 31.6 µM; TGI (HCT-116 colon): > 100 µM; GI50 (HCT-15 colon): 0.0889 µM; TGI (HCT-15 colon): 25 µM; TGI (HOP-62 NSCLC): 14.7 µM; TGI (HOP-92 NSCLC): 28 µM; TGI (IGROV1 ovarian): > 67.9 µM; TGI (K-562 leukemia): < 0.013 µM; TGI (KM12 colon): > 100 µM; TGI (LOX IMVI melanoma): 37.3 µM; TGI (MCF7 breast): > 46.2 µM; TGI (MDA-MB-231 breast): 22.7 µM; GI50 (NCI-H226 lung): 0.745 µM; TGI (NCI-H226 lung): 19.2 µM; GI50 (NCI-H322M lung): 0.014 µM; TGI (NCI-H322M lung): > 100 µM; TGI (NCI-H460 NSCLC): < 0.013 µM; GI50 (NCI/ADR-RES ovarian): 3.1 µM; TGI (NCI/ADR-RES ovarian): 9.24 µM; TGI (OVCAR-3 ovarian): 0.144 µM; TGI (OVCAR-4 ovarian): > 69.5 µM; TGI (OVCAR-5 ovarian): > 83.8 µM; TGI (OVCAR-8 ovarian): 0.0102 µM; TGI (PC-3 prostate): > 100 µM; GI50 (RXF 393 renal): < 0.0116 µM; TGI (RXF 393 renal): 0.022 µM; TGI (SF-268 CNS): 31.4 µM; GI50 (SF-295 CNS): 0.0114 µM; TGI (SF-295 CNS): 0.0364 µM; TGI (SF-539 CNS): 0.0123 µM; TGI (SK-OV-3 ovarian): > 31.6 µM; TGI (SN12C renal): 99.9 µM; TGI (SNB-19 CNS): > 71.1 µM; GI50 (TK-10 renal): 0.0337 µM; TGI (TK-10 renal): 28 µM; TGI (U251 glioblastoma): > 31.6 µM; TGI (UACC-62 melanoma): 18.8 µM; GI50 (UO-31 renal): 0.348 µM; TGI (UO-31 renal): > 69.3 µM

What does the source list for CNC(=O)c1ccc(N2C(=S)N(c3ccc(C#N)c(C(F)(F)F)c3)C(=O)C2(C)C)cc1F?
GI50 ([…]-0 renal): > 100 µM; TGI (786-0 renal): > 100 µM; GI50 (A498 renal): 54.7 µM; TGI (A498 renal): > 100 µM; GI50 (A549 NSCLC): 34.4 µM; TGI (A549 NSCLC): > 100 µM; GI50 (ACHN renal): 19.8 µM; TGI (ACHN renal): 40.4 µM; GI50 (BT-549 breast): 31.7 µM; TGI (BT-549 breast): 95.5 µM; GI50 (CAKI-1 renal): 90.8 µM; TGI (CAKI-1 renal): > 100 µM; GI50 (COLO 205 colon): 95.5 µM; TGI (COLO 205 colon): > 100 µM; GI50 (DU-145 prostate): 37.5 µM; TGI (DU-145 prostate): > 100 µM; GI50 (EKVX NSCLC): 44.8 µM; TGI (EKVX NSCLC): > 100 µM; GI50 (HCC-2998 colon): 93.4 µM; TGI (HCC-2998 colon): > 100 µM; GI50 (HCT-116 colon): 33.7 µM; TGI (HCT-116 colon): > 100 µM; GI50 (HCT-15 colon): 46 µM; TGI (HCT-15 colon): > 100 µM; GI50 (HL-60(TB) leukemia): 17 µM; TGI (HL-60(TB) leukemia): 34.5 µM; GI50 (HOP-62 NSCLC): 27.5 µM; TGI (HOP-62 NSCLC): 84.9 µM; GI50 (HOP-92 NSCLC): > 100 µM; TGI (HOP-92 NSCLC): > 100 µM; GI50 (HS 578T breast): 30.9 µM; TGI (HS 578T breast): > 100 µM; GI50 (HT29 colon): 82.9 µM; TGI (HT29 colon): > 100 µM; GI50 (IGROV1 ovarian): 52.1 µM; TGI (IGROV1 ovarian): > 100 µM; GI50 (KM12 colon): 69.1 µM; TGI (KM12 colon): > 100 µM; GI50 (LOX IMVI melanoma): 49.6 µM; TGI (LOX IMVI melanoma): > 100 µM; GI50 (M14 melanoma): 81.9 µM; TGI (M14 melanoma): > 100 µM; GI50 (MALME-3M melanoma): 24.1 µM; TGI (MALME-3M melanoma): > 100 µM; GI50 (MCF7 breast): 37.6 µM; TGI (MCF7 breast): > 100 µM; GI50 (MDA-MB-231 breast): 95.6 µM; TGI (MDA-MB-231 breast): > 100 µM; GI50 (MDA-MB-435 melanoma): > 100 µM; TGI (MDA-MB-435 melanoma): > 100 µM; GI50 (MDA-MB-468 breast): 26.9 µM; TGI (MDA-MB-468 breast): 80.2 µM; GI50 (MOLT-4 leukemia): 18.1 µM; TGI (MOLT-4 leukemia): 35.3 µM; GI50 (NCI-H226 lung): 29.9 µM; TGI (NCI-H226 lung): > 100 µM; GI50 (NCI-H23 lung): 31.3 µM; TGI (NCI-H23 lung): > 100 µM; GI50 (NCI-H322M lung): 93.8 µM; TGI (NCI-H322M lung): > 100 µM; GI50 (NCI-H460 NSCLC): 38.9 µM; TGI (NCI-H460 NSCLC): > 100 µM; GI50 (NCI-H522 lung): 74 µM; TGI (NCI-H522 lung): > 100 µM; GI50 (NCI/ADR-RES ovarian): 27.5 µM; TGI (NCI/ADR-RES ovarian): 90.9 µM; GI50 (OVCAR-3 ovarian): 59.2 µM; TGI (OVCAR-3 ovarian): > 100 µM; GI50 (OVCAR-4 ovarian): 34.7 µM; TGI (OVCAR-4 ovarian): 92.6 µM; GI50 (OVCAR-5 ovarian): > 100 µM; TGI (OVCAR-5 ovarian): > 100 µM; GI50 (OVCAR-8 ovarian): 37.6 µM; TGI (OVCAR-8 ovarian): > 100 µM; GI50 (PC-3 prostate): 49.6 µM; TGI (PC-3 prostate): > 100 µM; GI50 (RPMI-8226 leukemia): 32 µM; TGI (RPMI-8226 leukemia): > 100 µM; GI50 (RXF 393 renal): 29.6 µM; TGI (RXF 393 renal): 85.7 µM; GI50 (SF-268 CNS): 72.2 µM; TGI (SF-268 CNS): > 100 µM; GI50 (SF-295 CNS): 31.6 µM; TGI (SF-295 CNS): > 100 µM; GI50 (SF-539 CNS): > 100 µM; TGI (SF-539 CNS): > 100 µM; GI50 (SK-MEL-28 melanoma): > 100 µM; TGI (SK-MEL-28 melanoma): > 100 µM; GI50 (SK-MEL-5 melanoma): 41.4 µM; TGI (SK-MEL-5 melanoma): > 100 µM; GI50 (SK-OV-3 ovarian): > 100 µM; TGI (SK-OV-3 ovarian): > 100 µM; GI50 (SN12C renal): > 100 µM; TGI (SN12C renal): > 100 µM; GI50 (SNB-19 CNS): 85.4 µM; TGI (SNB-19 CNS): > 100 µM; GI50 (SNB-75 CNS): 48.5 µM; TGI (SNB-75 CNS): > 100 µM; GI50 (SR leukemia): 33.5 µM; TGI (SR leukemia): 49.7 µM; GI50 (SW-620 colon): > 100 µM; TGI (SW-620 colon): > 100 µM; GI50 (T-47D breast): 32.9 µM; TGI (T-47D breast): > 100 µM; GI50 (TK-10 renal): > 100 µM; TGI (TK-10 renal): > 100 µM; GI50 (U251 glioblastoma): 61.9 µM; TGI (U251 glioblastoma): > 100 µM; GI50 (UACC-257 melanoma): 72.4 µM; TGI (UACC-257 melanoma): > 100 µM; GI50 (UACC-62 melanoma): > 100 µM; TGI (UACC-62 melanoma): > 100 µM; GI50 (UO-31 renal): 63.1 µM; TGI (UO-31 renal): > 100 µM
